Results reported in ChEMBL document CHEMBL1131530, “Synthesis and biological activities of tricyclic conformationally restricted tetrahydropyrido annulated furo[2,3-d]pyrimidines as inhibitors of dihydrofolate reductases” (J Med Chem, 1998).

Key:
[1] = Selectivity for dihydrofolate reductase enzyme in rat liver and Pneumocystis carinii
Dihydrofolate reductase [2] = molecular target: T1, Dihydrofolate reductase (Mycobacterium avium, UniProt O30463); assay: Inhibitory concentration was evaluated against […] Dihydrofolate reductase enzyme in Mycobacterium avium.
T1 sequence (O30463 whole entry): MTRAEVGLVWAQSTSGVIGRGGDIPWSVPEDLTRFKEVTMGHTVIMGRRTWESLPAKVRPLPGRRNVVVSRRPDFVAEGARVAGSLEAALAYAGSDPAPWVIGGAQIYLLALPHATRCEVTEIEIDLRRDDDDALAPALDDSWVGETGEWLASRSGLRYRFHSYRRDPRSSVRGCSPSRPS

[3] = molecular target: T2, Bifunctional dihydrofolate reductase-thymidylate synthase (Toxoplasma gondii, UniProt Q07422)
T2 sequence (Q07422 whole entry): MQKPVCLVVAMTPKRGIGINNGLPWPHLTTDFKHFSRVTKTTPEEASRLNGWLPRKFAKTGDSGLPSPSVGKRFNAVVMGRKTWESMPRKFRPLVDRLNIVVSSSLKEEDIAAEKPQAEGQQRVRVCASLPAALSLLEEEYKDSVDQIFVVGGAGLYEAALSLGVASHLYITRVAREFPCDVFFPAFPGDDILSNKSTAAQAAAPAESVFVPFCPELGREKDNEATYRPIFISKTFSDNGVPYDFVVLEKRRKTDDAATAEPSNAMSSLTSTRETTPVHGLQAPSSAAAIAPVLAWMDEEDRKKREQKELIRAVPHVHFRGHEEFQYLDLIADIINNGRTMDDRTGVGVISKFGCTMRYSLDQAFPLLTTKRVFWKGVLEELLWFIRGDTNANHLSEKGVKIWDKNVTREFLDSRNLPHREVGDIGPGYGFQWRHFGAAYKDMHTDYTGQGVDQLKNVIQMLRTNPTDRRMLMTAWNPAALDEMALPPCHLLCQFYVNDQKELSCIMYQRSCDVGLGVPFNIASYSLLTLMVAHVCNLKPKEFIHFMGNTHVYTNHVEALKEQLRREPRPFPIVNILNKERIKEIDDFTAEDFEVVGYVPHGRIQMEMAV
Description: Inhibition of Toxoplasma gondii Dihydrofolate reductase

Dihydrofolate reductase [4] = molecular target: T3, Dihydrofolate reductase (Rattus norvegicus, UniProt Q920D2)
T3 sequence (Q920D2 whole entry): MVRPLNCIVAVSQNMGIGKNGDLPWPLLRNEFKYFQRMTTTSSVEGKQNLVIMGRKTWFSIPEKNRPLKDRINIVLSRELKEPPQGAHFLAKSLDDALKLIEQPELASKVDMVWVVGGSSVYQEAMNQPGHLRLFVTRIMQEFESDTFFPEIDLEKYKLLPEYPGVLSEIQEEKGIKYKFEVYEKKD
Description: Inhibition of Dihydrofolate reductase of rat liver

Dihydrofolate reductase [5] = molecular target: T4, Dihydrofolate reductase (Pneumocystis carinii, UniProt P16184)
T4 sequence (P16184 whole entry): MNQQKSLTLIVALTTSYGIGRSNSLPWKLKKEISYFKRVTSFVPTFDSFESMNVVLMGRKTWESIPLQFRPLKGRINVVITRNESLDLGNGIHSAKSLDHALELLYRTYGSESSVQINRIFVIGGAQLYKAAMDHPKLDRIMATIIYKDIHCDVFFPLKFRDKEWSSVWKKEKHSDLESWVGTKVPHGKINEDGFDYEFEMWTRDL
Description: Inhibition of Pneumocystis carinii dihydrofolate reductase

[6] = Selectivity for dihydrofolate reductase enzyme in rat liver Toxoplasma gondii
Homo sapiens = species on record: Homo sapiens; assay: Growth inhibition was measured for inhibition of growth in FaDu human squamous cell carcinoma of the head and neck.; format: functional
CCRF-CEM [7] = assay: Growth inhibition was measured for inhibition of growth in CCRF-CEM subline resistant to MTX solely as a result of a 20-fold increase in wild-type DHFR protein and activity.; format: functional, cell-based; conditions: Homo sapiens
CCRF-CEM [8] = assay: Growth inhibition was measured as for inhibition of growth in CCRF-CEM cells.; format: functional, cell-based; conditions: Homo sapiens
[9] = molecular target: T5, Folylpolyglutamate synthase, mitochondrial (Homo sapiens) (UniProt Q05932); assay: Activity of substrate for human FPGS was evaluated and compared to that of aminopterin (AMT)
T5 sequence (whole entry): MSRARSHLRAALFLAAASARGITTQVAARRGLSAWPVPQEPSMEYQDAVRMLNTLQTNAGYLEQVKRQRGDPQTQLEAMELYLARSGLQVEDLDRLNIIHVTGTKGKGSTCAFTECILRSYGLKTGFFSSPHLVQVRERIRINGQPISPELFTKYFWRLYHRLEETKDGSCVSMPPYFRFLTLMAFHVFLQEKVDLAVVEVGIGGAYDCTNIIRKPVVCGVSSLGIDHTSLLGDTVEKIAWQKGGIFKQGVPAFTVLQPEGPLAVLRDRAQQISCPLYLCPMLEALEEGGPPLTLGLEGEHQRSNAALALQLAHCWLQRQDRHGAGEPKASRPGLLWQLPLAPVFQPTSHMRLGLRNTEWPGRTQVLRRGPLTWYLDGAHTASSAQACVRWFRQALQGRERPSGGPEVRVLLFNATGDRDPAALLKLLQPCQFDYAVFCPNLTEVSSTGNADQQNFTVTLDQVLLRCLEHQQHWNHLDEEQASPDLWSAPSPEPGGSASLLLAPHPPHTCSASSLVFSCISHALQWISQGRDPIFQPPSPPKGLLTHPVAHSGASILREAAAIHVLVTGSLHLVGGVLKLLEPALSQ

CCRF-CEM [10] = assay: Growth inhibition was measured for inhibition of growth in CCRF-CEM sublines resistant to MTX solely as a result of decreased polyglutamation.; format: functional, cell-based; conditions: Homo sapiens
[11] = substrate: Nc1nc(N)c2c3c(oc2n1)CN(Cc1ccc(C(=O)N[C@@H](CCC(=O)O)C(=O)O)cc1)CC3; assay: Binding affinity was evaluated on CCRF-CEM human leukemia cell folyl-poly-glutamate synthetase.; format: cell-based

## Nc1nc(N)c2c3c(oc2n1)CN(Cc1ccc(Cl)c(Cl)c1)CC3
[1]
  Selectivity ratio: 0.9
Dihydrofolate reductase [2]
  IC50: > 20 µM
[3]
  IC50: 22.3 µM
Dihydrofolate reductase [4]
  IC50: 20.6 µM
Dihydrofolate reductase [5]
  IC50: 24.1 µM

## Nc1nc(N)c2c3c(oc2n1)CN(Cc1c(Cl)cccc1Cl)CC3
[6]
  Selectivity ratio: 2.5
[1]
  Selectivity ratio: 2
Dihydrofolate reductase [2]
  IC50: > 81.2 µM
[3]
  IC50: 31.7 µM
Dihydrofolate reductase [4]
  IC50: 81.2 µM
Dihydrofolate reductase [5]
  IC50: 40.5 µM

## CN(Cc1cnc2nc(N)nc(N)c2n1)c1ccc(C(=O)N[C@@H](CCC(=O)O)C(=O)O)cc1 [METHOTREXATE]
Homo sapiens
  EC50: 17.2 nM

## COc1cc(CN2CCc3c(oc4nc(N)nc(N)c34)C2)cc(OC)c1OC
Dihydrofolate reductase [2]
  IC50: 12.1 µM
[3]
  IC50: > 35 µM
Dihydrofolate reductase [4]
  IC50: > 35 µM
Dihydrofolate reductase [5]
  IC50: > 35 µM

## Nc1nc(N)c2c3c(oc2n1)CN(Cc1ccc(Cl)cc1Cl)CC3
[6]
  Selectivity ratio: 3.9
[1]
  Selectivity ratio: 2.3
Dihydrofolate reductase [2]
  IC50: > 50 µM
[3]
  IC50: 13.1 µM
Dihydrofolate reductase [4]
  IC50: 50.9 µM
Dihydrofolate reductase [5]
  IC50: 22.6 µM

## Nc1nc(N)c2c3c(oc2n1)CN(Cc1ccccc1)CC3
[6]
  Selectivity ratio: > 10
Dihydrofolate reductase [2]
  IC50: > 15 µM
[3]
  IC50: 1.4 µM
Dihydrofolate reductase [4]
  IC50: 15 µM
Dihydrofolate reductase [5]
  IC50: > 9 µM

## Nc1nc(N)c2c3c(oc2n1)CN(Cc1ccc(C(=O)N[C@@H](CCC(=O)O)C(=O)O)cc1)CC3
CCRF-CEM [7]
  EC50: 10.3 µM
[6]
  Selectivity ratio: 4
[1]
  Selectivity ratio: 7.9
Dihydrofolate reductase [2]
  IC50: 0.97 µM
[3]
  IC50: 21.5 µM
CCRF-CEM [8]
  EC50: 3.6 µM
[9]
  Relative Vmax: 0.29
CCRF-CEM [10]
  EC50: > 50 µM
Dihydrofolate reductase [4]
  IC50: 85.8 µM
Homo sapiens
  EC50: > 100000 nM

## COc1cc(CN2CCc3c(oc4nc(N)nc(N)c34)C2)cc(OC)c1
Dihydrofolate reductase [2]
  IC50: > 20 µM
[3]
  IC50: > 20.4 µM
Dihydrofolate reductase [4]
  IC50: 22.8 µM
Dihydrofolate reductase [5]
  IC50: > 22.8 µM

## Nc1nc(N)c2nc(CNc3ccc(C(=O)N[C@@H](CCC(=O)O)C(=O)O)cc3)cnc2n1
[9]
  Relative Vmax: 1

## Nc1nc(N)c2c(CNc3ccc(C(=O)NC(CCC(=O)O)C(=O)O)cc3)coc2n1 (configuration not stated)
[6]
  Selectivity ratio: 1.9
[1]
  Selectivity ratio: 1.4

## CN(Cc1coc2nc(N)nc(N)c12)c1ccc(C(=O)NC(CCC(=O)O)C(=O)O)cc1 (configuration not stated)
[6]
  Selectivity ratio: 0.021
[1]
  Selectivity ratio: 12.2

B1: Folylpolyglutamate synthase, mitochondrial (Homo sapiens), Q05932 (protein)
chain: MSRARSHLRAALFLAAASARGITTQVAARRGLSAWPVPQEPSMEYQDAVRMLNTLQTNAGYLEQVKRQRGDPQTQLEAMELYLARSGLQVEDLDRLNIIHVTGTKGKGSTCAFTECILRSYGLKTGFFSSPHLVQVRERIRINGQPISPELFTKYFWRLYHRLEETKDGSCVSMPPYFRFLTLMAFHVFLQEKVDLAVVEVGIGGAYDCTNIIRKPVVCGVSSLGIDHTSLLGDTVEKIAWQKGGIFKQGVPAFTVLQPEGPLAVLRDRAQQISCPLYLCPMLEALEEGGPPLTLGLEGEHQRSNAALALQLAHCWLQRQDRHGAGEPKASRPGLLWQLPLAPVFQPTSHMRLGLRNTEWPGRTQVLRRGPLTWYLDGAHTASSAQACVRWFRQALQGRERPSGGPEVRVLLFNATGDRDPAALLKLLQPCQFDYAVFCPNLTEVSSTGNADQQNFTVTLDQVLLRCLEHQQHWNHLDEEQASPDLWSAPSPEPGGSASLLLAPHPPHTCSASSLVFSCISHALQWISQGRDPIFQPPSPPKGLLTHPVAHSGASILREAAAIHVLVTGSLHLVGGVLKLLEPALSQ
[11]
  Km: 6.2 µM
